Data as given in US20200069668A1, “Therapeutic Combinations of an IRAK4 Inhibitor and a BTK Inhibitor” (Acerta Pharma B.V., priority 2015, published 2020).

Columns and labels:
Raji cells = experiment: Rituximab ADCC chromium release assay, Raji targets; assay type: cell-based, human; conditions: 1 μM, healthy donor NK cells
Procedure: All in vitro experiments were performed in triplicate.
ADCC assays were performed as follows. Briefly, target cells (Raji or primary CLL) were labeled by incubation at 37° C. with 100 μCi ^51Cr for 4 hours prior to co-culture with NK cells. Cells were washed, enumerated, and then added in triplicate to prepared 96-well plates containing treated NK cells at an effector:target (E:T) ratio of 25:1. […] Cultures were incubated at 37° C. for 4 hours, and then centrifuged. Supernatants were harvested and ^51Cr release was measured by liquid scintillation counting. All experiments were performed in triplicate.

Th17 cells and Treg = experiment: Th17 and Treg development from CD4+ T cells; assay type: cell-based
Procedure: Enriched CD4^+ T cells are plated on 24-well culture dishes that have been precoated 2 hr with 250 μL anti-TCRβ (0.5 μg/mL) plus anti-CD28 (5 μg/mL) at 37° C. in PBS. The cells are then supplemented with media containing BTK inhibitors along with the skewing cytokines as indicated in the following. The Th17 and Treg cultures are grown for 4 days before analysis. The cells are maintained for an additional 3 days with skewing cytokines (Th17; 20 ng/mL IL-6, 0.5 ng/mL TGF-β, 5 μg/mL IL-4, 5 μg/mL IFN-γ and Treg; 0.5 ng/mL TGF-β, 5 μg/mL IL-4, […] IFN-γ) and are supplemented with IL2 as a growth factor.

CD8+ T cells = experiment: CD8+ T cell viability; assay type: cell-based; conditions: ibrutinib effect at higher doses
Procedure: Total T cells were plated on anti-TCR and anti-CD28 coated wells in the presence of both BTK inhibitors. Neutral culture conditions were used that will not polarize T cells to a helper lineage. […] Statistical significance was calculated using the Mann Whitney T-test.

CD8+ T cell function = experiment: Cytotoxic T cell (CTL) assay; assay type: cell-based; conditions: relative to vehicle; for CD8+ T cell function as % cytotoxicity: 500 nM
Procedure: Without being bound by any theory, CD8^+ T cells have two primary effector functions: (1) produce large amounts of IFN-γ (which activates macrophages), and (2) cytolytic activity. […] The targets were B lymphoblasts from lipopolysaccharide (LPS) treated cultures. The assay was performed by incubating different ratios of effectors:targets for 4 hours.

[1] = tested on: GPVI platelet aggregation; experiment: GPVI (convulxin) platelet aggregation; assay type: cell-based, human
[2] = monotherapy, dose levels through 840 mg; cited from earlier work
[3] = tested on: BCR activation markers CD69 and CD86; experiment: In vivo potency: BCR activation markers after gavage; conditions: mice, 3 hours post-dose, IgM stimulation, compared with Formula (10)
Procedure: Mice were gavaged at increasing drug concentration and sacrificed at one time point (3 hours post-dose). BCR is stimulated with IgM and the expression of activation markers CD69 and CD86 are monitored by flow cytometry to determine EC50 values.
CD86 and CD69 are cell surface proteins that are BCR activation markers. […] BCR was stimulated with IgM and the expression of activation marker CD69 and CD86 are monitored by flow cytometry to determine EC50 values.

[4] = tested on: 80 known pharmacologic targets such as G-protein-coupled receptors, nuclear receptors, proteases, and ion channels; experiment: Binding assays with 80 known pharmacologic targets; conditions: screened at 10 μM
From the text: (§1) Formula (2) was well tolerated in standard in vivo Good Laboratory Practices (GLP) studies of pharmacologic safety.

[5] = GLP functional observation battery; assay type: in vivo; conditions: rats, doses through 300 mg/kg
From the text: as §1

[6] = Cardiovascular function study in awake telemeterized dogs; assay type: in vivo, male beagle dogs; conditions: single doses through 30 mg/kg
From the text: as §1

[7] = In vitro metabolism in hepatocytes with 14C-labeled drug; assay type: in vitro ADME, and human; conditions: mouse, rat, dog, rabbit, monkey, human hepatocytes
ID8 ovarian cancer = experiment: ID8 syngeneic orthotropic ovarian cancer model; assay type: in vivo, mice; conditions: 15 mg/kg/BID orally
From the text: Human ovarian cancer models, including the ID8 syngeneic orthotropic ovarian cancer model and other animal models, are described in Fong and Kakar, J. Ovarian Res. 2009, 2, 12; Greenaway, et al., Gynecol. Oncol. 2008, 108, 385-94; Urzua, et al., Tumour Biol. 2005, 26, 236-44; Janat-Amsbury, et al., Anticancer Res. 2006, 26, 3223-28; Janat-Amsbury, et al., Anticancer Res. 2006, 26, 2785-89. […] The results of the study are shown in FIG. 4, FIG. 5, FIG. 6, FIG. 7, FIG. 8, FIG. 9, FIG. 10, and FIG. 11.

NSCLC (KrasLA2) = experiment: KrasLA2 NSCLC genetic tumor model; assay type: in vivo, mice; conditions: 15 mg/kg
From the text: The model is designed to have sporadic expression in single cells of G12D mutant Kras off its own promoter triggered by spontaneous intrachromosomal recombination. Johnson, et al. Nature 2001, 410, 1111-16. While the mutant Kras protein is expressed in a few cells in all tissues, tumor development is seen only in the lung at high penetrance.

BTK = molecular target: T1, BTK (Mus musculus, UniProt P35991); experiment: Molecular probe assay of BTK occupancy in MDSCs of tumor bearing PDA mice; assay type: in vivo; conditions: 15 mg/kg BID, Day 8, 4 hours post dose
T1 construct: endogenous in cells; host or cells: granulocytic and monocytic MDSCs from tumour-bearing PDA (KPC) mice dosed in vivo
From the text: A molecular probe assay was used to calculate the percent irreversible occupancy of total BTK.

NK cells (CD56+/CD107a+) = experiment: Whole blood NK cell degranulation with obinutuzumab-opsonised MEC-1 cells; assay type: cell-based, human; conditions: 1 h pretreatment, obinutuzumab 1 μg/mL, 4 h
Procedure: Degranulation in whole blood was performed as follows. […] Exponentially growing cells were used. […] A white blood cell (WBC) count of whole blood was performed. […] The ibrutinib control and two blinded BTK inhibitors were diluted in X-VIVO 15 serum-free hematopoietic cell medium (Lonza Group, Ltd.) to concentrations of 200 μM, 20 M and 2 μM. 170 μL aliquots of unmanipulated whole blood were incubated with 10 μL BTK inhibitors or X-VIVO 15 medium for one hour into a plate. […] The samples were placed in a 5% CO2 incubator for 4 hours at 37° C.
After 4 hours, the samples were mixed gently and 50 μL aliquots were removed from each well and placed in fluorescence-activated cell sorting (FACS) test tubes. A 20 μL aliquot of anti-CD56-APC antibody and anti-CD107a-PE antibody was added. The samples were incubated for 20 minutes at room temperature in the dark. An aliquot of 2 mL of FACS lysing solution (BD Biosceinces) was added. The samples were again incubated for 5 minutes, and then centrifuged at 2000 rpm for 5 minutes. Supernatant was discarded and the cell pellet was resuspended in 500 μL of PBS. The samples were analyzed on the flow cytometer for CD107a^+ NK cells (CD56^+).

relapsed/refractory CLL = experiment: Clinical study in relapsed/refractory CLL: efficacy; assay type: in vivo, human; conditions: Kaplan-Meier, p-value 0.0206
Procedure: This study is a multicenter, open-label, nonrandomized, sequential group, dose escalation study. The following dose cohorts will be evaluated:
The investigator rates the subject's response to treatment based on recent guidelines for CLL, as given in Hallek, et al., Blood 2008, 111, 5446-56, and for SLL, as given in Cheson, et al., J. Clin. Oncol. 2007, 25, 579-586.
The analysis of efficacy parameters was performed as follows. The point estimate of the overall response rate will be calculated for the PP analysis set. The corresponding 95% confidence interval also will be derived. The duration of overall response is measured from the time measurement criteria are met for CR or PR (whichever is first recorded) until the first date that recurrent or progressive disease is objectively documented (taking as reference for progressive disease the smallest measurements recorded since the treatment started). […] Progression-free survival is measured from the time of first study drug administration until the first date that recurrent or progressive disease is objectively documented (taking as reference for progressive disease the smallest measurements recorded since the treatment started). […]
The study scheme is a seqential cohort escalation. […] The dose level for Cohort 6 will be determined based on the safety and efficacy of Cohorts 1 to 5, and will not exceed 900 mg/day. […]

[8] = tested on: human platelet-mediated thrombosis; experiment: Laser-induced thrombus formation with human platelets in VWF HA1 mice; conditions: in vivo
Procedure: Injury to the vessel wall of arterioles ([…] diameter) was performed using a pulsed nitrogen dye laser (440 nm, Photonic Instruments) applied through a 20× water-immersion Olympus objective (LUMPlanF1, 0.5 numerical aperature (NA)) of a Zeiss Axiotech vario microscope. […] The extent of thrombus formation was assessed for 2 minutes after injury and the area (μm^2) of coverage determined (Image IQ, Andor Technology).
The BTK inhibitor-treated human platelets were fluorescently labeled and infused continuously through a catheter inserted into the femoral artery.

T1 sequence (P35991 whole entry): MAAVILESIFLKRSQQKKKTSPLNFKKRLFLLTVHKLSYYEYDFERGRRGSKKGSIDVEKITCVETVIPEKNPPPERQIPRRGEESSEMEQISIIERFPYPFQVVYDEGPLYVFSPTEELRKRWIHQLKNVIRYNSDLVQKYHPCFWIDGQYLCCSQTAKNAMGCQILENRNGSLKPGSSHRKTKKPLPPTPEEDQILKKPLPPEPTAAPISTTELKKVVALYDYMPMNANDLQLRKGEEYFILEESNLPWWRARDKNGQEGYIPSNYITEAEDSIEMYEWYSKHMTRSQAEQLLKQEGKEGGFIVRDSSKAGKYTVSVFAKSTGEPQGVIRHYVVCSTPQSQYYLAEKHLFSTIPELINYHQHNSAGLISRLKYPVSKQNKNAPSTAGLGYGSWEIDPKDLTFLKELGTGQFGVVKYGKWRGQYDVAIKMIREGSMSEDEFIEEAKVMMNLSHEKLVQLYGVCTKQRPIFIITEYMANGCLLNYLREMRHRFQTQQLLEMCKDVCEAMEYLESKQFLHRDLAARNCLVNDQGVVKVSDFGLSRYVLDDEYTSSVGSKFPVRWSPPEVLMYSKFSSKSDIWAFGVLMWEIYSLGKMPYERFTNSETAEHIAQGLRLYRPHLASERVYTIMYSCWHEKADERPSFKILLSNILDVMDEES

For `C=CC(=O)N1CCC[C@@H](n2nc(-c3ccc(Oc4ccccc4)cc3)c3c(N)ncnc32)C1` [Formula (10), reference compound], the “effect on antibody-dependent lysis of rituximab-coated Raji cells” value (Raji cells) was “strongly inhibited”, the “effect on T helper 17 (Th17) cells” value (Th17 cells and Treg) was “strongly inhibits” and the “effect on regulatory T cell (Treg) development” value (Th17 cells and Treg) was “strongly increases”. For the same molecule, the “effect on CD8+ T cell viability” value (CD8+ T cells) was “strongly affects”, the “CD8+ T cell function as % cytotoxicity” value (CD8+ T cell function) was “affects” and the “CD8+ T cell function as IFN-γ level” value (CD8+ T cell function) was “affects”. The “effect on GPVI platelet aggregation” value [1] was “significantly inhibits” and the maximum tolerated dose [2] was “No maximum tolerated dose (MTD) was apparent”.

For `CC#CC(=O)N1CCC[C@H]1c1nc(-c2ccc(C(=O)Nc3ccccn3)cc2)c2c(N)nccn12` [Formula (2)], the “in vivo potency at inhibiting expression of activation markers CD69 and CD86” value [3] was “more potent”, the “activity in binding assays with 80 pharmacologic targets” value [4] was “significant activity only against the A3 adenosine receptor” and the “neurobehavioral effects and body temperature” value [5] was “no adverse effects”. The “body temperature, cardiovascular and ECG (including QT interval) parameters” value [6] was “no meaningful changes”, the “metabolites found in hepatocytes” value [7] was “two mono-oxidized metabolites and a glutathione conjugate” and the “CD8+ T cells” value (ID8 ovarian cancer) was “increase”. The “immunosuppressive B cells, including Bregs” value (ID8 ovarian cancer; tumor-bearing mice) was “significant reduction”, the “tumor volumes versus vehicle” value (NSCLC (KrasLA2)) was “significant decrease” and the “irreversible BTK occupancy in granulocytic and monocytic MDSCs” value (BTK) was “Complete BTK occupancy”. The “reduction of obinutuzumab-stimulated NK degranulation” value (NK cells (CD56+/CD107a+)) was “minimal effect”, the “effect on T helper 17 (Th17) cells” value (Th17 cells and Treg) was “no adverse effect” and the “effect on regulatory T cell (Treg) development” value (Th17 cells and Treg) was “no effect”. For the same molecule, the “effect on CD8+ T cell viability” value (CD8+ T cells) was “no effect”, the “CD8+ T cell function as % cytotoxicity” value (CD8+ T cell function) was “no effect” and the “CD8+ T cell function as IFN-γ level” value (CD8+ T cell function) was “no effect”. For the same molecule, the “progression-free survival versus ibrutinib-treated patients” value (relapsed/refractory CLL) was “improvement in survival”, the “effect on human platelet-mediated thrombus formation” value [8] was “no significant effect” and the “effect on GPVI platelet aggregation” value [1] was “does not”. The “treatment-related adverse event: Headache” value (Grade 1/2, All (N = 44)) was 7 (16) n (%), the “treatment-related adverse event: Diarrhea” value (Grade 1, All (N = 44)) was 4 (9) n (%) and the “treatment-related adverse event: Increased tendency to bruise” value (Grade 1, All (N = 44)) was 6 (14) n (%). For the same molecule, the “treatment-related adverse event: Petechiae” value (Grade 1, All (N = 44)) was 3 (7) n (%), the “dose-limiting toxicities (DLTs)” value (relapsed/refractory CLL) was “No DLTs” and the “grade of adverse events observed” value (relapsed/refractory CLL) was “only grade 1 AEs”. For the same molecule, the lymphocytosis (relapsed/refractory CLL) was “lack of lymphocytosis” and the “treatment-related serious adverse events (SAEs)” value (relapsed/refractory CLL) was “No treatment-related serious adverse events”.
